Common to all, as to assay type: functional
In assay [1] the test system is Mycobacterium tuberculosis. Kind of assay: Antimycobacterial activity against Mycobacterium tuberculosis isolate MA03 expressing wild-type rpoB gene by resazurin microtiter assay. (The colour change of resazurin is a common sign of viable cells or microbes.)
Assay [2] has as its system Mycobacterium tuberculosis. Kind of assay: Antimycobacterial activity against Mycobacterium tuberculosis isolate 359 expressing wild-type rpoB gene by resazurin microtiter assay.
Assay [3] deals with Mycobacterium tuberculosis. Kind of assay: Antimycobacterial activity against Mycobacterium tuberculosis H37Rv ATCC 27294 expressing wild-type rpoB gene by resazurin microtiter assay.
Assay [4] has as its system Mycobacterium tuberculosis. Kind of assay: Antimycobacterial activity against Mycobacterium tuberculosis isolate 361 expressing wild-type rpoB gene by resazurin microtiter assay.
Assay [5] concerns Mycobacterium tuberculosis. Briefly: Antimycobacterial activity against Mycobacterium tuberculosis isolate 353 expressing wild-type rpoB gene by resazurin microtiter assay.

Consider 8 compounds from ChEMBL document CHEMBL1926527, “Pharmacophore insights into rpoB gene mutations in Mycobacterium tuberculosis rifampicin resistant isolates” (2012).

Values after ≈ are worked out from the molar mass of the structure shown. A value given as a limit tells only on which side of the number the result lay.

In the case of `CO[C@H]1/C=C/O[C@@]2(C)Oc3c(C)c(O)c4c(c3C2=O)C2=NC3(CCN(CC(C)C)CC3)NC2=C(NC(=O)/C(C)=C\C=C\[C@H](C)[C@H](O)[C@@H](C)[C@@H](O)[C@@H](C)[C@H](O)[C@@H]1C)C4=O`, the minimal inhibitory concentration (MIC) (as a rule, the lowest concentration that inhibits growth of the organism) in assay [1] was under 0.06 µg/mL; in assay [2], under 0.06 µg/mL; in assay [3] it was 0.06 µg/mL (≈ 0.0745 µM); in assay [4], under 0.06 µg/mL; in assay [5], over 2 µg/mL.
As to `CO[C@H]1/C=C/O[C@@]2(C)Oc3c(C)c(O)c4c(c3[C@H]2O)C2=NC3(CCN(CC(C)C)CC3)N(C(C)=O)C2=C(NC(=O)/C(C)=C\C=C\[C@H](C)[C@H](O)[C@@H](C)[C@@H](O)[C@@H](C)[C@H](OC(C)=O)[C@@H]1C)C4=O`, the MIC in assay [1] is under 0.06 µg/mL; in assay [2] it was under 0.06 µg/mL; in assay [3], 0.06 µg/mL (≈ 0.0673 µM); in assay [4], under 0.06 µg/mL; in assay [5], over 2 µg/mL.
As to `CCCCCCCCCCCCCCCC(=O)N1C2=C3NC(=O)/C(C)=C\C=C\[C@H](C)[C@H](O)[C@@H](C)[C@@H](O)[C@@H](C)[C@H](OC(C)=O)[C@H](C)[C@@H](OC)/C=C/O[C@@]4(C)Oc5c(C)c(O)c(c(c5C4=O)C2=NC12CCN(CC(C)C)CC2)C3=O`, the MIC in assay [1] was under 0.06 µg/mL; in assay [2], under 0.06 µg/mL; in assay [3] it was 0.06 µg/mL (≈ 0.0553 µM); in assay [4], under 0.06 µg/mL; in assay [5], over 2 µg/mL.
For the compound `C=CCCCCCCCCC(=O)N1C2=C3NC(=O)/C(C)=C\C=C\[C@H](C)[C@H](O)[C@@H](C)[C@@H](O)[C@@H](C)[C@H](OC(C)=O)[C@H](C)[C@@H](OC)/C=C/O[C@@]4(C)Oc5c(C)c(O)c(c(c5C4=O)C2=NC12CCN(CC(C)C)CC2)C3=O`, the MIC in assay [1] is under 0.06 µg/mL; in assay [2] it was under 0.06 µg/mL; in assay [3] it was 0.06 µg/mL (≈ 0.0592 µM); in assay [4] it was under 0.06 µg/mL; in assay [5], over 2 µg/mL.
Regarding `CO[C@H]1/C=C/O[C@@]2(C)Oc3c(C)c(O)c4c(c3C2=O)C2=NC3(CCN(CC(C)C)CC3)N(C(C)=O)C2=C(NC(=O)/C(C)=C\C=C\[C@H](C)[C@H](O)[C@@H](C)[C@@H](O)[C@@H](C)[C@H](OC(C)=O)[C@@H]1C)C4=O`, the MIC was under 0.06 µg/mL in assay [1]; under 0.06 µg/mL in assay [2]; 0.06 µg/mL (≈ 0.0675 µM) in assay [3]; under 0.06 µg/mL in assay [4]; 0.12 µg/mL (≈ 0.135 µM) in assay [5].
With `CO[C@H]1/C=C/O[C@@]2(C)Oc3c(C)c(O)c4c(c3C2=O)C2=NC3(CCN(CC(C)C)CC3)NC2=C(NC(=O)/C(C)=C\C=C\[C@H](C)[C@H](O)[C@@H](C)[C@@H](O)[C@@H](C)[C@H](OC(C)=O)[C@@H]1C)C4=O` [RIFABUTIN], the minimum inhibitory concentration (MIC) in assay [1] is under 0.06 µg/mL; in assay [2] it was under 0.06 µg/mL; in assay [3], 0.06 µg/mL (≈ 0.0708 µM); in assay [4] it was under 0.06 µg/mL; in assay [5], 0.12 µg/mL (≈ 0.142 µM).
Consider `CO[C@H]1/C=C/O[C@@]2(C)Oc3c(C)c(O)c4c(O)c(c(/C=N/N5CCN(C)CC5)c(O)c4c3C2=O)NC(=O)/C(C)=C\C=C\[C@H](C)[C@H](O)[C@@H](C)[C@@H](O)[C@@H](C)[C@H](OC(C)=O)[C@@H]1C` [RIFAMPIN], for which the minimum inhibitory concentration (MIC) in assay [1] is under 0.06 µg/mL; in assay [2], 0.12 µg/mL (≈ 0.146 µM); in assay [3] it was 0.06 µg/mL (≈ 0.0729 µM); in assay [4], under 0.06 µg/mL; in assay [5], over 2 µg/mL.
`CO[C@H]1/C=C/O[C@@]2(C)Oc3c(C)c(O)c4c(c3[C@H]2O)C2=NC3(CCN(CC(C)C)CC3)NC2=C(NC(=O)/C(C)=C\C=C\[C@H](C)[C@H](O)[C@@H](C)[C@@H](O)[C@@H](C)[C@H](O)[C@@H]1C)C4=O`: the minimum inhibitory concentration (MIC) is under 0.06 µg/mL in assay [1]; 0.25 µg/mL (≈ 0.31 µM) in assay [2]; 0.06 µg/mL (≈ 0.0743 µM) in assay [3]; 0.12 µg/mL (≈ 0.149 µM) in assay [4]; 2 µg/mL (≈ 2.48 µM) in assay [5].
